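All cell lines were grown in 96-well plates and treated with compound for 48 hours. GI50 is the concentration that inhibits growth by half. TGI marks complete inhibition of growth.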
Experiments:
Experiment in all cases: DTP human tumour cell line panel, 48 h
LOX IMVI melanoma = tested on: LOX IMVI melanoma
OVCAR-8 ovarian = tested on: OVCAR-8 ovarian
NCI-H23 lung = tested on: NCI-H23 lung
SNB-19 CNS = tested on: SNB-19 CNS
UACC-257 melanoma = tested on: UACC-257 melanoma
MDA-MB-231 breast = tested on: MDA-MB-231 breast
SK-OV-3 ovarian = tested on: SK-OV-3 ovarian
UACC-62 melanoma = tested on: UACC-62 melanoma
OVCAR-3 ovarian = tested on: OVCAR-3 ovarian
HOP-62 NSCLC = tested on: HOP-62 NSCLC

Compound | TGI (LOX IMVI melanoma) | TGI (OVCAR-8 ovarian) | TGI (NCI-H23 lung) | TGI (SNB-19 CNS) | TGI (UACC-257 melanoma) | TGI (MDA-MB-231 breast) | TGI (SK-OV-3 ovarian) | TGI (UACC-62 melanoma) | TGI (OVCAR-3 ovarian) | TGI (HOP-62 NSCLC) | GI50 (LOX IMVI melanoma) | GI50 (OVCAR-8 ovarian) | GI50 (NCI-H23 lung) | GI50 (SNB-19 CNS) | GI50 (UACC-257 melanoma) | GI50 (MDA-MB-231 breast) | GI50 (SK-OV-3 ovarian) | GI50 (UACC-62 melanoma) | GI50 (OVCAR-3 ovarian) | GI50 (HOP-62 NSCLC)
Cc1[nH]c2ccccc2c1-c1cc(-c2cc(-c3c(C)[nH]c4ccccc34)nc(N)n2)nc(N)n1 | > 100 µM | > 100 µM | > 100 µM | > 100 µM | > 100 µM | > 100 µM | > 100 µM | > 100 µM | > 100 µM | > 100 µM | – | – | – | – | – | – | – | – | – | –
C[C@@H]1Cc2c([nH]c3ccccc23)[C@@H](c2c(F)cc(NC3CN(CCCF)C3)cc2F)N1CC(F)(F)CO | 3.49 µM | 33 µM | 25.6 µM | 23.6 µM | 4.51 µM | 20.8 µM | 28.4 µM | 5.77 µM | 26.3 µM | 31.1 µM | 1.75 µM | 11.7 µM | 11.9 µM | 10.3 µM | 1.97 µM | 5.24 µM | 14.4 µM | 2.35 µM | 11.3 µM | 13.6 µM
O=[N+]([O-])/C=C/c1cc2ccccc2[nH]1 | 29.5 µM | 48.8 µM | 30.2 µM | 34.7 µM | 29.6 µM | 36.9 µM | 32.8 µM | 33.7 µM | 28.2 µM | 32.4 µM | – | – | – | – | – | – | – | – | – | –
CN(C)C/C=C/C(=O)Nc1cc2c(Nc3ccc(F)c(Cl)c3F)ncnc2cc1OCCOC(F)F | 2.25 µM | 9.9 µM | 3.82 µM | 11.6 µM | 10.3 µM | 6.53 µM | – | 4.46 µM | 1.73 µM | 5.61 µM | 0.958 µM | 0.972 µM | 1.23 µM | 1.57 µM | 2.18 µM | 0.472 µM | < 0.01 µM | 1.45 µM | 0.101 µM | 1.31 µM
COc1cc2c(cc1OC)C(OC)N(C)c1c-2ccc2cc3c(cc12)OCO3 (centres undefined) | > 32.8 µM | 21.6 µM | 6.49 µM | > 75 µM | 50.2 µM | 5.16 µM | 2.53 µM | 3.08 µM | 5.68 µM | 7.4 µM | – | – | – | – | – | – | – | – | – | –
Cc1nc(CN2CCCCC2)c(O)c(=O)[nH]1 | > 100 µM | > 100 µM | > 100 µM | > 100 µM | > 100 µM | > 100 µM | > 100 µM | > 100 µM | > 100 µM | > 100 µM | – | – | – | – | – | – | – | – | – | –
COC(=O)c1c(O)c([N+](=O)[O-])cc2c1c1c(n2Cc2ccccc2)C(=O)c2ccccc2C1=O | > 100 µM | 53.1 µM | 84.4 µM | 65.3 µM | > 100 µM | > 100 µM | > 100 µM | > 100 µM | 69.7 µM | 49.8 µM | > 100 µM | 14.1 µM | 21.9 µM | 17.1 µM | 41 µM | 19.9 µM | > 100 µM | 30.9 µM | 11.5 µM | 21.3 µM
Nc1nc2cc3ccc(C4CC(O)C(CO)O4)cc3cc2c(=O)[nH]1 (centres undefined) | > 100 µM | > 100 µM | > 100 µM | > 100 µM | > 100 µM | > 100 µM | > 100 µM | > 100 µM | > 100 µM | > 100 µM | > 100 µM | > 100 µM | > 100 µM | > 100 µM | > 100 µM | > 100 µM | > 100 µM | > 100 µM | > 100 µM | > 100 µM
CS(=O)(=O)Nc1cccc(-c2cc(-c3ccccc3Cl)c(C#N)c(N)n2)c1 | 17.4 µM | 19.9 µM | 19.5 µM | 19.6 µM | 21.4 µM | 15.5 µM | 13.8 µM | 15.5 µM | 2.8 µM | 16.6 µM | 0.531 µM | 1.05 µM | 0.651 µM | 0.859 µM | 0.5 µM | 0.712 µM | 0.737 µM | 0.51 µM | 0.298 µM | 0.558 µM
N#CC(C#N)N=Nc1ccc(Br)cc1 | 16.5 µM | 33.4 µM | 26.7 µM | > 100 µM | 7.54 µM | 7.04 µM | > 100 µM | 10.9 µM | 15.4 µM | > 100 µM | 3.75 µM | 3.67 µM | 2.42 µM | 27.5 µM | 2.12 µM | 1.69 µM | 22.3 µM | 1.91 µM | 2.5 µM | 27.1 µM
OC(COc1ccc(F)cc1)Cn1cnc2c(Cl)ncnc21 (centres undefined) | > 100 µM | > 100 µM | – | > 100 µM | > 100 µM | > 100 µM | > 100 µM | > 100 µM | > 100 µM | > 100 µM | 39.1 µM | 78.6 µM | – | > 100 µM | 46.8 µM | 64.7 µM | > 100 µM | 79 µM | 74 µM | > 100 µM
CN1CCN(c2cc(C(=O)Nc3cc4cc(-c5cnn(C)c5)ccc4cn3)ccn2)CC1 | 0.262 µM | 11.7 µM | 3.29 µM | 12 µM | 10.4 µM | 3.75 µM | 2.44 µM | 0.646 µM | 0.288 µM | 12.7 µM | 0.0933 µM | 0.225 µM | 0.111 µM | 0.121 µM | 0.146 µM | 0.219 µM | 0.0631 µM | 0.192 µM | 0.0425 µM | 0.207 µM
O=Cc1ccc(-c2ccc(-c3nc4ccccc4o3)cc2)s1 | 36 µM | > 100 µM | > 100 µM | > 100 µM | > 100 µM | 55.2 µM | 99.5 µM | 98.8 µM | 45.4 µM | 82 µM | 16.7 µM | 35 µM | 30.2 µM | 49.2 µM | 49.3 µM | 21.9 µM | 30.8 µM | 30.7 µM | 16.5 µM | 27.9 µM
Nc1ccccc1NC(=O)c1ccc(CCCC(=O)Nc2ccc(C3CC3N)cc2)cc1 (centres undefined) | 3.47 µM | > 100 µM | 33.8 µM | > 100 µM | – | 48 µM | 42.4 µM | 3.03 µM | 11.3 µM | 20.7 µM | 1.45 µM | 1.32 µM | 2.29 µM | 3.81 µM | – | 2.77 µM | 2.15 µM | 0.573 µM | 1.91 µM | 2.01 µM
S=C(Nc1ccc(Cl)cc1)Nc1ccc(-c2nc3ccccc3o2)cc1 | 26.3 µM | 49.7 µM | 41.8 µM | > 100 µM | 45.4 µM | 35.1 µM | > 100 µM | 27.7 µM | 44.7 µM | 57.4 µM | 11.7 µM | 21 µM | 17.7 µM | 25.6 µM | 21.4 µM | 10.3 µM | 32.3 µM | 12.7 µM | 13.6 µM | 26 µM
CCN1C2=NCCN2S(=O)(=O)c2ccccc21 | > 100 µM | > 100 µM | > 100 µM | > 100 µM | > 100 µM | > 100 µM | > 100 µM | > 100 µM | > 100 µM | > 100 µM | – | – | – | – | – | – | – | – | – | –
CC(=O)N1c2ccccc2NC2=C(C(=O)N(Cc3ccccc3)C2(C)C)C1c1ccco1 (centres undefined) | > 25 µM | > 25 µM | > 25 µM | > 25 µM | > 25 µM | > 11.3 µM | > 25 µM | > 25 µM | 1.42 µM | > 25 µM | 1.01 µM | 1.24 µM | 0.494 µM | 0.524 µM | > 25 µM | 0.364 µM | 0.786 µM | 0.373 µM | 0.208 µM | 1.25 µM
O=C(O)CCC/C=C\C[C@H]1C=CC(=O)/C1=C/C[C@@H](O)CCc1cccc(C(F)(F)F)c1 | 2.89 µM | 11.6 µM | 6.37 µM | 4.8 µM | 7.38 µM | 21.9 µM | 18.3 µM | 6.94 µM | 5.61 µM | 7.27 µM | 1.29 µM | 2.86 µM | 2.25 µM | 2.01 µM | 2.36 µM | 5.19 µM | 5.66 µM | 2.29 µM | 1.99 µM | 2.93 µM
Fc1ccc(-c2ncn(C3CCNCC3)c2-c2ccnc(Oc3ccc(F)c(F)c3)n2)cc1 | 9.14 µM | 10.9 µM | > 25 µM | > 25 µM | 9.15 µM | 12 µM | > 16.4 µM | 10.3 µM | > 14.4 µM | 9.56 µM | 4.29 µM | 4.96 µM | > 17.8 µM | 12.2 µM | 4.76 µM | 5.59 µM | 7.54 µM | 4.99 µM | 6.68 µM | 4.83 µM
COc1ccc(C[C@@H]2NC[C@@H](O)[C@@H]2OC(C)=O)cc1 | – | 0.112 µM | – | – | – | 0.261 µM | – | – | – | – | 3.46 µM | 3.48 µM | 2.76 µM | 3.73 µM | 2.33 µM | – | – | 3.19 µM | 5.34 µM | 19.3 µM
Cc1ccc(C(=O)Nc2ccc(S(=O)(=O)O)c3cc(S(=O)(=O)O)cc(S(=O)(=O)O)c23)cc1NC(=S)Nc1cc(C(=O)Nc2ccc(S(=O)(=O)O)c3cc(S(=O)(=O)O)cc(S(=O)(=O)O)c23)ccc1C | > 75 µM | > 75 µM | > 75 µM | > 75 µM | > 75 µM | > 75 µM | – | > 75 µM | > 75 µM | > 75 µM | – | – | – | – | – | – | – | – | – | –
